Data as given in paper PMC5337940, “Sansanmycin natural product analogues as potent and selective anti-mycobacterials that inhibit lipid I biosynthesis” (Nature Communications, 2017).
Values after ≈ are worked out from the molar mass of the structure shown. Read-outs that look alike come from different tables or passages of the source.

Tests used:
[1] = test system: Mtb H37Rv; assay: Resazurin reduction microplate assay, growth inhibition of Mtb H37Rv; format: cell-based, Mycobacterium tuberculosis; conditions: for MIC50: read-out: MIC50 Mtb H37Rv
[2] = molecular target: Mtb MurX (Mycobacterium tuberculosis, UniProt P9WMW7); assay: Radiochemical (TLC) MurX-MurG coupled inhibition assay in Mtb mc2 6230 membranes; format: biochemical; conditions: 200 nM inhibitor, decrease in lipid II formation
[3] = test system: HEK293 cells; assay: Cytotoxicity counter-screen, resazurin reduction microplate assay; format: cell-based; conditions: Homo sapiens, tested up to 200 μM, read-out: MIC50 (HEK293)
[4] = Mycobacterium tuberculosis, H37RV, average of two independent experiments, each in triplicate
[5] = average of two independent experiments, each in triplicate

Sequence of Mtb MurX (P9WMW7 whole entry): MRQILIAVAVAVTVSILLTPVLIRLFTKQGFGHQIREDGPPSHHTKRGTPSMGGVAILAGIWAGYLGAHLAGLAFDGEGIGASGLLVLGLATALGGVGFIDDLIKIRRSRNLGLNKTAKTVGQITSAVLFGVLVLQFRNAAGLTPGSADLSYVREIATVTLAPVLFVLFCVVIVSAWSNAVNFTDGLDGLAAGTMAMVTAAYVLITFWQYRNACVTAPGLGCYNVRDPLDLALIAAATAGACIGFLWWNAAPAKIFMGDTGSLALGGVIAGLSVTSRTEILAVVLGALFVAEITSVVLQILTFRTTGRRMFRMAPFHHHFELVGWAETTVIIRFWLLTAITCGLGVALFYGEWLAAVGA

| Structure (SMILES) | MIC50 [1, 4] | inhibition at 0.2 µM [2] | CC50 [3] | MIC50 Mtb H37Rv [1, 5] | MIC50 ([1]; Mycobacterium tuberculosis, H37RV) | MIC50 [1, 5] |
| --- | --- | --- | --- | --- | --- | --- |
| C[C@@H]([C@H](NC(=O)[C@H](Cc1ccccc1)NC(=O)N[C@@H](Cc1c[nH]c2ccccc12)C(=O)O)C(=O)NC[C@H]1C[C@@H](O)[C@H](n2ccc(=O)[nH]c2=O)O1)N(C)C(=O)CN [Compound 29] | 0.26 ± 0.15 µM (≈ 0.202 µg/mL) | 60% | > 200 µM |  |  |  |
| CC(C)C[C@H](NC(=O)N[C@@H](Cc1c[nH]c2ccccc12)C(=O)O)C(=O)N[C@H](C(=O)NC[C@H]1C[C@@H](O)[C@H](n2ccc(=O)[nH]c2=O)O1)[C@H](C)N(C)C(=O)[C@@H](N)CCCCN [Compound 15] | 1.35 ± 0.07 µM (≈ 1.1 µg/mL) | 7% | > 200 µM | 0.95 to 1.35 µM |  |  |
| CO[C@H]1/C=C/O[C@@]2(C)Oc3c(C)c(O)c4c(O)c(c(/C=N/N5CCN(C)CC5)c(O)c4c3C2=O)NC(=O)/C(C)=C\C=C\[C@H](C)[C@H](O)[C@@H](C)[C@@H](O)[C@@H](C)[C@H](OC(C)=O)[C@@H]1C [RIF, Rifampicin, reference compound] | 0.006 ± 0.002 µM (≈ 0.00494 µg/mL) |  |  |  |  |  |
| C[C@@H]([C@H](NC(=O)[C@H](CC(=O)O)NC(=O)N[C@@H](Cc1c[nH]c2ccccc12)C(=O)O)C(=O)NC[C@H]1C[C@@H](O)[C@H](n2ccc(=O)[nH]c2=O)O1)N(C)C(=O)CN [Compound 27] |  | 34% | > 200 µM |  | > 6.25 µM |  |
| CC[C@@H](C)[C@H](NC(=O)N[C@@H](Cc1c[nH]c2ccccc12)C(=O)O)C(=O)N[C@H](C(=O)NC[C@H]1C[C@@H](O)[C@H](n2ccc(=O)[nH]c2=O)O1)[C@H](C)N(C)C(=O)CN [Compound 21] | 0.93 ± 0.11 µM (≈ 0.69 µg/mL) | 46% | > 200 µM |  |  |  |
| CC(C)C[C@H](NC(=O)N[C@@H](Cc1c[nH]c2ccccc12)C(=O)O)C(=O)N[C@H](C(=O)NC[C@H]1C[C@@H](O)[C@H](n2ccc(=O)[nH]c2=O)O1)[C@H](C)N(C)C(=O)[C@H](C)N [Compound 13] | 0.6 ± 0.14 µM (≈ 0.453 µg/mL) | 50% | > 200 µM |  |  | 0.60 µM (≈ 0.453 µg/mL) |
| C[C@@H]([C@H](NC(=O)[C@H](Cc1c[nH]c2ccccc12)NC(=O)N[C@@H](Cc1c[nH]c2ccccc12)C(=O)O)C(=O)NC[C@H]1C[C@@H](O)[C@H](n2ccc(=O)[nH]c2=O)O1)N(C)C(=O)CN [Compound 33] | 0.44 to 0.98 µM (≈ 0.359 to 0.799 µg/mL) | 52% | > 200 µM | 0.44 ± 0.06 µM (≈ 0.359 µg/mL) |  |  |
| CC(C)C[C@H](NC(=O)N[C@@H](Cc1c[nH]c2ccccc12)C(=O)O)C(=O)N[C@H](C(=O)NC[C@H]1C[C@@H](O)[C@H](n2ccc(=O)[nH]c2=O)O1)[C@H](C)N(C)C(=O)[C@@H](N)CCCN [Compound 16] | 0.95 ± 0.07 µM (≈ 0.759 µg/mL) | 5% | > 200 µM | 0.95 to 1.35 µM |  |  |
| C[C@@H]([C@H](NC(=O)[C@H](CC[S+](C)[O-])NC(=O)N[C@@H](Cc1c[nH]c2ccccc12)C(=O)O)C(=O)NC[C@H]1C[C@@H](O)[C@H](n2ccc(=O)[nH]c2=O)O1)N(C)C(=O)[C@@H](N)Cc1cccc(O)c1 (stereo partly drawn) [Compound 6, Dihydrosansanmycin C] | 18.5 ± 0.7 µM (≈ 16.3 µg/mL) | 68% | > 200 µM |  |  |  |
| CC(C)C[C@H](NC(=O)N[C@@H](Cc1c[nH]c2ccccc12)C(=O)O)C(=O)N[C@H](C(=O)NC[C@H]1C[C@@H](O)[C@H](n2ccc(=O)[nH]c2=O)O1)[C@H](C)N(C)C(=O)[C@@H](N)Cc1ccc2ccccc2c1 [Compound 9] | 3 ± 0.7 µM (≈ 2.65 µg/mL) | 27% | > 200 µM |  |  |  |
| CC(C)C[C@H](NC(=O)N[C@@H](Cc1c[nH]c2ccccc12)C(=O)O)C(=O)N[C@H](C(=O)NC[C@H]1C[C@@H](O)[C@H](n2ccc(=O)[nH]c2=O)O1)[C@H](C)N(C)C(=O)[C@@H](N)Cc1cccc(O)c1 [Compound 5, Dihydrosansanmycin B] | 0.3 ± 0.03 µM (≈ 0.254 µg/mL) | > 51% | > 200 µM | 0.30 ± 0.07 µM (≈ 0.254 µg/mL) |  |  |
| CC(C)C[C@H](NC(=O)N[C@@H](Cc1c[nH]c2ccccc12)C(=O)O)C(=O)N[C@H](C(=O)NC[C@H]1C[C@@H](O)[C@H](n2ccc(=O)[nH]c2=O)O1)[C@H](C)N(C)C(=O)[C@@H](N)[C@@H](C)O [Compound 17] | 1.35 ± 0.07 µM (≈ 1.06 µg/mL) | 20% | > 200 µM | 0.95 to 1.35 µM |  |  |
| C[C@@H]([C@H](NC(=O)[C@H](Cc1ccc(O)cc1)NC(=O)N[C@@H](Cc1c[nH]c2ccccc12)C(=O)O)C(=O)NC[C@H]1C[C@@H](O)[C@H](n2ccc(=O)[nH]c2=O)O1)N(C)C(=O)CN [Compound 31] | 0.44 to 0.98 µM (≈ 0.348 to 0.776 µg/mL) | 40% | > 200 µM | 0.52 ± 0.02 µM (≈ 0.412 µg/mL) |  |  |
| CC(C)C[C@H](NC(=O)N[C@@H](Cc1c[nH]c2ccccc12)C(=O)O)C(=O)N[C@H](C(=O)NC[C@H]1C[C@@H](O)[C@H](n2ccc(=O)[nH]c2=O)O1)[C@H](C)N(C)C(=O)[C@@H](N)CC1CCCCC1 [Compound 10] | 1 ± 0.3 µM (≈ 0.838 µg/mL) | 41% | > 200 µM | 0.95 to 1.35 µM |  |  |
| CC(C)C[C@H](NC(=O)N[C@@H](Cc1c[nH]c2ccccc12)C(=O)O)C(=O)N[C@H](C(=O)NC[C@H]1C[C@@H](O)[C@H](n2ccc(=O)[nH]c2=O)O1)[C@H](C)N(C)C(=O)[C@@H](N)Cc1ccccc1 [Compound 7] | 4.05 ± 0.63 µM (≈ 3.37 µg/mL) | 27% | > 200 µM |  |  |  |
